The species named for assay [1] is Rattus norvegicus. Description: Displacement of radiolabelled L-T3 from thyroid hormone receptor in intact rat hepatic nuclei relative to T3.
Assay [2] relates to Rattus norvegicus. Description: In vivo antigoiter activity in rat. The format is functional.
Assay [3] addresses T1, Thyroxine-binding globulin (Homo sapiens) (UniProt P05543).
T1 sequence (whole entry): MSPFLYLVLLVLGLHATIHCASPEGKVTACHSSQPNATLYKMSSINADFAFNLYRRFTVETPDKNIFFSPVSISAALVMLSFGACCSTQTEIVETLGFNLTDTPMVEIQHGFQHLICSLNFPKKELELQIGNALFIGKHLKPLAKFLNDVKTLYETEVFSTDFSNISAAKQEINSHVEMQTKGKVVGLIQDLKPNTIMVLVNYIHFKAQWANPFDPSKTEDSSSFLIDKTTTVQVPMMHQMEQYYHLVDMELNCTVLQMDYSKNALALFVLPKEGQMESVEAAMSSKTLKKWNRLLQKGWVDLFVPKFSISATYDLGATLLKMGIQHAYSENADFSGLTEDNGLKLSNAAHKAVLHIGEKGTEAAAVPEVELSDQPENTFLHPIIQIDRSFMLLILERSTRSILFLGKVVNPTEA
The assay is described as follows: Binding affinity to thyroxine binding globulin (unknown origin) relative to T4.

In the case of `NC(Cc1cc(I)c(Oc2ccc(O)c(-c3ccccc3)c2)c(I)c1)C(=O)O` (stereo not given), the RBA is 2% in the assay filed under Rattus norvegicus [1] and 0.04% in assay [3]. The log(%) is 0.301 in the assay filed under Rattus norvegicus [1], 0.308 in the assay on Rattus norvegicus [2] and -1.4 in assay [3]. Further, the Activity in the assay on Rattus norvegicus [2] is given as 2.03%.

Consider `Cc1cc(Oc2c(I)cc(CC(N)C(=O)O)cc2I)cc(C)c1O` (stereo not given), for which, in the assay filed under Rattus norvegicus [1], the RBA was 6.2% and the log(%) was 0.792. Moreover, in the assay with Rattus norvegicus [2], the Activity was determined as 9.04% and the “log(%)” value is 0.956. Moreover, in assay [3], the RBA is 0.29% and the log(%) was -0.538.

Take `CC(C)(C)c1cc(Oc2c(I)cc(CC(N)C(=O)O)cc2I)ccc1O` (stereo not given): the values for the RBA (in the assay listed under Rattus norvegicus [1]; in assay [3]) were 38.5% and 0.67%, respectively. Further, the values for the log(%) (in the assay filed under Rattus norvegicus [1]; in the assay on Rattus norvegicus [2]; in assay [3]) were 1.59, 1.336 and -0.174, respectively. This compound gave an Activity in the assay on Rattus norvegicus [2] of 21.7%.

In the assay filed under Rattus norvegicus [1], `NC(Cc1cc(I)c(Oc2ccc(O)cc2)c(I)c1)C(=O)O` (stereo not given) came in with an RBA of 0.3% and a log(%) of -0.523. In addition, in the assay on Rattus norvegicus [2], the Activity came to 0.81% and the “log(%)” value is listed as -0.092. In addition, in assay [3], the RBA turned out to be 0.07% and the log(%) is -1.16.

In the assay listed under Rattus norvegicus [1], `NC(Cc1cc(I)c(Oc2cccc(C(F)(F)F)c2)c(I)c1)C(=O)O` (stereo not given) yielded an RBA of 0.2% and a log(%) of -0.699. Besides, in the assay with Rattus norvegicus [2], the Activity worked out at 13.56% and the “log(%)” value is 1.132.

In the assay listed under Rattus norvegicus [1], `Cc1cc(Oc2c(C)cc(CC(N)C(=O)O)cc2C)cc(C)c1O` (stereo not given) showed an RBA of 0.1% and a log(%) of -1. Besides, in the assay on Rattus norvegicus [2], the Activity is given as 0.36% and the “log(%)” value is on record as -0.444.

As for `NC(Cc1cc(I)c(Oc2ccc(O)c(O)c2)c(I)c1)C(=O)O` (stereo not given), in the assay with Rattus norvegicus [2], the Activity was 0.27% and the “log(%)” value was -0.569. Also, in assay [3], the RBA turned out to be 0.06% and the log(%) was -1.22.

On to `CC(C)c1cc(Oc2c(I)cc(CC(N)C(=O)O)cc2I)ccc1O` (stereo not given), for which the figures for the RBA (in the assay listed under Rattus norvegicus [1]; in assay [3]) were 100% and 3.53%, respectively. Moreover, the log(%) amounted to 2 in the assay listed under Rattus norvegicus [1], 2.153 in the assay with Rattus norvegicus [2] and 0.548 in assay [3]. The compound also returned an Activity in the assay with Rattus norvegicus [2] of 142.1%.

In the assay listed under Rattus norvegicus [1], `NC(Cc1cc(Br)c(Oc2ccc(O)c(I)c2)c(I)c1)C(=O)O` (stereo not given) came in with an RBA of 1.4% and a log(%) of 0.146. For the same compound, in the assay on Rattus norvegicus [2], the Activity amounted to 71.98% and the “log(%)” value is recorded as 1.857.

As for `NC(Cc1cc(I)c(Oc2ccc(O)c(Cl)c2)c(I)c1)C(=O)O` (stereo not given), in the assay listed under Rattus norvegicus [1], the RBA was 6.2% and the log(%) is 0.792. In addition, in the assay on Rattus norvegicus [2], the Activity is reported as 4.88% and the “log(%)” value is 0.688.

In the assay listed under Rattus norvegicus [1], `CCc1cc(Oc2c(I)cc(CC(N)C(=O)O)cc2I)ccc1O` (stereo not given) returned an RBA of 21% and a log(%) of 1.32. In the assay with Rattus norvegicus [2], the Activity stood at 40.8% and the “log(%)” value is on record as 1.611. In assay [3], this compound came in with an RBA of 1.59% and a log(%) of 0.201.

In the assay listed under Rattus norvegicus [1], `Cc1cc(Oc2c(I)cc(CC(N)C(=O)O)cc2I)ccc1O` (stereo not given) registered an RBA of 13.5% and a log(%) of 1.13. Also, in the assay with Rattus norvegicus [2], the Activity amounted to 14.47% and the “log(%)” value turned out to be 1.16. In assay [3], this compound had an RBA of 0.28% and a log(%) of -0.553.

On to `Cc1cc(CC(N)C(=O)O)cc(C)c1Oc1ccc(O)c(C(C)C)c1` (stereo not given), for which, in the assay filed under Rattus norvegicus [1], the RBA came to 0.7% and the log(%) is -0.155. In the assay with Rattus norvegicus [2], the Activity is reported as 3.6% and the “log(%)” value was found to be 0.556.

In the assay listed under Rattus norvegicus [1], `Nc1ccc(Oc2c(I)cc(CC(N)C(=O)O)cc2I)cc1` (stereo not given) yielded an RBA of 0.76% and a log(%) of -0.119. For the same compound, in the assay on Rattus norvegicus [2], the Activity is 0.27% and the “log(%)” value is -0.569.

In the assay listed under Rattus norvegicus [1], `CC(C)Cc1cc(Oc2c(I)cc(CC(N)C(=O)O)cc2I)ccc1O` (stereo not given) came in with an RBA of 20% and a log(%) of 1.3. Also, in the assay on Rattus norvegicus [2], the Activity is 7.74% and the “log(%)” value is 0.889. In assay [3], this compound yielded an RBA of 0.1% and a log(%) of -1.

`NC(Cc1cc(I)c(Oc2cccc(I)c2)c(I)c1)C(=O)O` (stereo not given): in the assay listed under Rattus norvegicus [1], the RBA is 0.4% and the log(%) is -0.398. In the assay with Rattus norvegicus [2], the Activity came out at 27.12% and the “log(%)” value was found to be 1.433.

As to `Cc1cc(O)c(I)cc1Oc1c(I)cc(CC(N)C(=O)O)cc1I` (stereo not given), in the assay filed under Rattus norvegicus [1], the RBA came to 0.3% and the log(%) was -0.523. In the assay with Rattus norvegicus [2], the Activity is reported as 0.36% and the “log(%)” value is -0.444.

In the assay filed under Rattus norvegicus [1], `Cc1cccc(Oc2c(I)cc(CC(N)C(=O)O)cc2I)c1` (stereo not given) registered an RBA of 0.2% and a log(%) of -0.699. Besides, in the assay with Rattus norvegicus [2], the Activity is given as 2.71% and the “log(%)” value is 0.433.

On to `N[C@@H](Cc1cc(I)c(Oc2ccc(O)c(I)c2)c(I)c1)C(=O)O` [LIOTHYRONINE], for which, in the assay on Rattus norvegicus [2], the Activity is listed as 100% and the “log(%)” value is on record as 2. In assay [3], the RBA was found to be 9% and the log(%) was determined as 0.954.

For `NC(Cc1ccc(Oc2ccc(O)c(I)c2)c(I)c1)C(=O)O` (stereo not given) [DIIODOTHYRONINE], in the assay listed under Rattus norvegicus [1], the RBA was 0.5% and the log(%) was -0.301. In the assay on Rattus norvegicus [2], the Activity is listed as 0.056% and the “log(%)” value is -1.252.

On to `NC(Cc1cc(I)c(Oc2ccc(O)c3c2CCCC3)c(I)c1)C(=O)O` (stereo not given), for which, in the assay listed under Rattus norvegicus [1], the RBA worked out at 8% and the log(%) was 0.903. Also, in the assay on Rattus norvegicus [2], the Activity is 18.08% and the “log(%)” value worked out at 1.257.

In the assay listed under Rattus norvegicus [1], `Cc1cc(Oc2c(C)cc(CC(N)C(=O)O)cc2C)ccc1O` (stereo not given) returned an RBA of 0.1% and a log(%) of -1. Moreover, in the assay on Rattus norvegicus [2], the Activity worked out at 0.54% and the “log(%)” value is on record as -0.268.

With `NC(Cc1cc(I)c(Oc2cc(I)c(O)c(I)c2)c(I)c1)C(=O)O` (stereo not given) [THYROXINE], in the assay listed under Rattus norvegicus [1], the RBA came to 12.5% and the log(%) worked out at 1.1. In addition, in the assay with Rattus norvegicus [2], the Activity is given as 18.1% and the “log(%)” value was 1.258. In assay [3], this compound registered an RBA of 100% and a log(%) of 2.
